Molecular target: T1, AsPC-1 HiBiT-KRASG12D (Homo sapiens, UniProt P01116, G12D)
T1 construct: insert the HiBiT tag onto the N-terminus of one or more of the endogenous KRAS alleles; endogenous in cells; host or cells: AsPC-1 (ATCC CRL-1682), CRISPR-Cas9 knock-in clone, one tagged allele
Assay: HiBiT degradation assay (G12D), AsPC-1 HiBiT-KRASG12D cells
Type: cell-based
Conditions: 24 hours treatment; for Dmax: ASPC1, AsPC-1 HiBiT-KRASG12D cells; for DC50: HiBiT luminescence
From the text: Reagents. […] SW1573 cells are homozygous for the G12C mutation in KRAS, AsPC-1 cells are homozygous for the G12D mutation, and SW620 cells are homozygous for the G12V mutation. […] For degradation assays, 384 well plates were used. Alamar blue was purchased from ThermoFisher scientific (A50101) and used according to manufacturer instructions. The Nano-Glo® HiBiT Lytic Detection System and Nano-Glo® HiBiT Blotting System were purchased from Promega (#N3050 and #N2410) and used according to manufacturer instructions.
To create the AsPC-1 HiBiT-KRASG12D cell line, CRISPR-Cas9 was used to insert the HiBiT tag onto the N-terminus of one or more of the endogenous KRAS alleles. […] After knock-in of the tag, individual clones were isolated by single cell dilution and screened for HiBiT insertion by PCR. […] This clone was used in further studies.
HiBiT degradation assays (G12C and G12D). […] All assays were performed in triplicate. Cells were treated with compounds for 24 hours at 37° C. in an incubator containing 5% CO2. Following treatment, alamar blue was used to determine if any compounds led to a loss in cell viability after 24 hours. The 10× alamar blue reagent was added to a final concentration of 1× as recommended by the manufacturer and cells were returned to the incubator for 4 hours. Plates were then allowed to equilibrate to room temperature and fluorescence was measured using a Perkin-Elmer EnVision. After completion of the fluorescence read, the liquid from each well was removed and the cells were washed with PBS. The Nano-Glo® HiBiT detection reagent was prepared according to the manufacturer's instructions and added to each well after the PBS wash was removed. Following incubation at room temperature for 45 minutes, the luminescence was read using the ultra-sensitive luminescence aperture on the Envision instrument.
Data analysis. Fluorescence values from the alamar blue treatment were normalized to the DMSO-only control for each compound titration.

T1 sequence (P01116 1-188 isoform P01116-2 G12D): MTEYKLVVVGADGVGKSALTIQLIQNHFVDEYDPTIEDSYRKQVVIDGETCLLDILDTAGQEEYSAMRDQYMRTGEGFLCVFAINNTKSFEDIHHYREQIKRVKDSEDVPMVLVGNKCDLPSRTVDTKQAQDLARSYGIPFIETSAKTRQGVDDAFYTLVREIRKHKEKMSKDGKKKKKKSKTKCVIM

Structure (SMILES) | Dmax (maximum degradation observed) | DC50 (AsPC-1 HiBiT-KRASG12D cells) | AsPC-1 HiBiT-KRASG12D DMax (AsPC-1 HiBiT-KRASG12D cells, maximum degradation observed)
CCc1cccc2cc(O)cc(-c3ncc4c(N5CC6CCC(C5)N6)nc(OC[C@@]56CCCN5[C@H](COC(=O)N5CC7(C5)CN(c5cc([C@H](C(=O)N8C[C@H](O)C[C@H]8C(=O)N[C@@H](C)c8ccc(-c9scnc9C)cc8)C(C)C)on5)C7)CC6)nc4c3F)c12 [Compound 112, [(3S,7aS)-7a-{[(4-{3,8-diazabicyclo[3.2.1]octan-3-yl}-7-(8-ethyl-3-hydroxynaphthalen-1-yl)-8-fluoropyrido[4,3-d]pyrimidin-2-yl)oxy]methyl}-hexahydro-1H-pyrrolizin-3-yl]methyl 6-{5-[(2R)-1-[(2S,4R)-4-hydroxy-2-{[(1S)-1-[4-(4-methyl-1,3-thiazol-5-yl)phenyl]ethyl]carbamoyl}pyrrolidin-1-yl]-3-methyl-1-oxobutan-2-yl]-1,2-oxazol-3-yl}-2,6-diazaspiro[3.3]heptane-2-carboxylate] | 80 to 100% | < 600 nM | –
C#Cc1c(F)ccc2cc(O)cc(-c3ncc4c(N5CC6CCC(C5)N6)nc(OCCN5CCC(CCC6CN(c7cc([C@H](C(=O)N8C[C@H](O)C[C@H]8C(=O)N[C@@H](C)c8ccc(-c9scnc9C)cc8)C(C)C)on7)C6)CC5)nc4c3F)c12 [Compound 184] | 80 to 100% | < 600 nM | –
CCc1cccc2cc(O)cc(-c3ncc4c(N5CC6CCC(C5)N6)nc(OCCN5CCC(CC6(F)CN(CC(=O)N[C@H](C(=O)N7C[C@H](O)C[C@H]7C(=O)N[C@@H](C)c7ccc(-c8scnc8C)cc7)C(C)(C)C)C6)CC5)nc4c3F)c12 [Compound 263, (2S,4R)-1-[(2S)-2-(2-{3-[(1-{2-[(4-{3,8-diazabicyclo[3.2.1]octan-3-yl}-7-(8-ethyl-3-hydroxynaphthalen-1-yl)-8-fluoropyrido[4,3-d]pyrimidin-2-yl)oxy]ethyl}piperidin-4-yl)methyl]-3-fluoroazetidin-1-yl}acetamido)-3,3-dimethylbutanoyl]-4-hydroxy-N-[(1S)-1-[4-(4-methyl-1,3-thiazol-5-yl)phenyl]ethyl]pyrrolidine-2-carboxamide] | 80 to 100% | < 600 nM | –
CCc1cccc2cc(O)cc(-c3ncc4c(N5CC6CCC(C5)N6)nc(OCCN5CCC(CC6CCN(c7cc(C(C(=O)N8C[C@H](O)C[C@H]8C(=O)N[C@@H](C)c8ccc(-c9scnc9C)cc8)C(C)C)on7)CC6)CC5)nc4c3F)c12 (single isomer, unassigned) [Compound 321] | – | 600 to 1000 nM | C (20% <C ≤ 60%)
C#Cc1c(F)ccc2cccc(-c3ncc4c(N5CC6CCC(C5)N6)nc(OC[C@]56CCCN5[C@H](COC(=O)N5CCN(c7cc([C@H](C(=O)N8C[C@H](O)C[C@H]8C(=O)N[C@@H](C)c8ccc(-c9scnc9C)cc8)C(C)C)on7)CC5)CC6)nc4c3F)c12 [Compound 53, [(3S,7aR)-7a-{[(4-{3,8-diazabicyclo[3.2.1]octan-3-yl}-7-(8-ethynyl-7-fluoronaphthalen-1-yl)-8-fluoropyrido[4,3-d]pyrimidin-2-yl)oxy]methyl}-hexahydro-1H-pyrrolizin-3-yl]methyl 4-{5-[(2R)-1-[(2S,4R)-4-hydroxy-2-{[(1S)-1-[4-(4-methyl-1,3-thiazol-5-yl)phenyl]ethyl]carbamoyl}pyrrolidin-1-yl]-3-methyl-1-oxobutan-2-yl]-1,2-oxazol-3-yl}piperazine-1-carboxylate] | 80 to 100% | < 600 nM | –
C#Cc1c(F)ccc2cc(O)cc(-c3ncc4c(N5CC6CCC(C5)N6)nc(OCCN5CCC(CCOc6cc([C@@H](C(=O)N7C[C@H](O)C[C@H]7C(=O)N[C@@H](C)c7ccc(-c8scnc8C)cc7)C(C)C)on6)CC5)nc4c3F)c12 [Compound 174, (2S,4R)-1-[(2S)-2-{3-[2-(1-{2-[(4-{3,8-diazabicyclo[3.2.1]octan-3-yl}-7-(8-ethynyl-7-fluoro-3-hydroxynaphthalen-1-yl)-8-fluoropyrido[4,3-d]pyrimidin-2-yl)oxy]ethyl}piperidin-4-yl)ethoxy]-1,2-oxazol-5-yl}-3-methylbutanoyl]-4-hydroxy-N-[(1S)-1-[4-(4-methyl-1,3-thiazol-5-yl)phenyl]ethyl] pyrrolidine-2-carboxamide] | 80 to 100% | < 600 nM | –
CCc1cccc2cc(O)cc(-c3ncc4c(N5CC6CCC(C5)N6)nc(OCCN5CC[C@@H]6CN(c7cc([C@@H](C(=O)N8C[C@H](O)C[C@H]8C(=O)N[C@@H](C)c8ccc(-c9scnc9C)cc8)C(C)C)on7)C[C@@H]6C5)nc4c3F)c12 (relative stereo) [Compound 72, (2S,4R)-1-[(2R*)-2-{3-[(3aR**,7aR***)-5-{2-[(4-{3,8-diazabicyclo[3.2.1]octan-3-yl}-7-(8-ethyl-3-hydroxynaphthalen-1-yl)-8-fluoropyrido[4,3-d]pyrimidin-2-yl)oxy]ethyl}-octahydro-1H-pyrrolo[3,4-c]pyridin-2-yl]-1,2-oxazol-5-yl}-3-methylbutanoyl]-4-hydroxy-N-[(1S)-1-[4-(4-methyl-1,3-thiazol-5-yl)phenyl]ethyl]pyrrolidine-2-carboxamide] | < 20% | > 3000 nM | –
CCc1cccc2cc(O)cc(-c3ncc4c(N5CC6CCC(C5)N6)nc(OCCN5CCC(CC6(F)CCN(CC(=O)N[C@H](C(=O)N7C[C@H](O)C[C@H]7C(=O)N[C@@H](C)c7ccc(-c8scnc8C)cc7)C(C)(C)C)CC6)CC5)nc4c3F)c12 [Compound 260, (2S,4R)-1-[(2S)-2-(2-{4-[(1-{2-[(4-{3,8-diazabicyclo[3.2.1]octan-3-yl}-7-(8-ethyl-3-hydroxynaphthalen-1-yl)-8-fluoropyrido[4,3-d]pyrimidin-2-yl)oxy]ethyl}piperidin-4-yl)methyl]-4-fluoropiperidin-1-yl}acetamido)-3,3-dimethylbutanoyl]-4-hydroxy-N-[(1S)-1-[4-(4-methyl-1,3-thiazol-5-yl)phenyl]ethyl]pyrrolidine-2-carboxamide] | 80 to 100% | < 600 nM | –
CCc1cccc2cc(O)cc(-c3ncc4c(N5CC6CCC(C5)N6)nc(OCCN5CCC(COc6cc([C@@H](C(=O)N7C[C@H](O)C[C@H]7C(=O)N[C@@H](C)c7ccc(-c8ccnn8C)cc7)C(C)C)on6)CC5)nc4c3F)c12 (relative stereo) [Compound 142, (2S,4R*)-1-[(2S)-2-{3-[(1-{2-[(4-{3,8-diazabicyclo[3.2.1]octan-3-yl}-7-(8-ethyl-3-hydroxynaphthalen-1-yl)-8-fluoropyrido[4,3-d]pyrimidin-2-yl)oxy]ethyl}piperidin-4-yl)methoxy]-1,2-oxazol-5-yl}-3-methylbutanoyl]-4-hydroxy-N-[(1S)-1-[4-(1-methyl-1H-pyrazol-5-yl)phenyl]ethyl]pyrrolidine-2-carboxamide] | – | > 3000 nM | –
CCc1cccc2cc(O)cc(-c3ncc4c(N5CC6CCC(C5)N6)nc(OC[C@]56CCCN5[C@H](COC(=O)N5CCN(c7cc(C(C(=O)N8C[C@H](O)C[C@H]8C(=O)N[C@@H](C)c8ccc(-c9scnc9C)cc8)C(C)C)on7)CC5)CC6)nc4c3F)c12 (single isomer, unassigned) [Compound 109, [(3S,7aR)-7a-{[(4-{3,8-diazabicyclo[3.2.1]octan-3-yl}-7-(8-ethyl-3-hydroxynaphthalen-1-yl)-8-fluoropyrido[4,3-d]pyrimidin-2-yl)oxy]methyl}-hexahydro-1H-pyrrolizin-3-yl]methyl 4-{5-[(2R*)-1-[(2S,4R)-4-hydroxy-2-{[(1S)-1-[4-(4-methyl-1,3-thiazol-5-yl)phenyl]ethyl]carbamoyl}pyrrolidin-1-yl]-3-methyl-1-oxobutan-2-yl]-1,2-oxazol-3-yl}piperazine-1-carboxylate] | 80 to 100% | < 600 nM | –
C#Cc1c(F)ccc2cc(O)cc(-c3ncc4c(N5CC6CCC(C5)N6)nc(OCCN5CCC(C(C)(C)N6CCN(c7cc([C@H](C(=O)N8C[C@H](O)C[C@H]8C(=O)N[C@@H](C)c8ccc(-c9scnc9C)cc8)C(C)C)on7)CC6)CC5)nc4c3F)c12 [Compound 175, (2S,4R)-1-[(2R)-2-(3-{4-[2-(1-{2-[(4-{3,8-diazabicyclo[3.2.1]octan-3-yl}-7-(8-ethynyl-7-fluoro-3-hydroxynaphthalen-1-yl)-8-fluoropyrido[4,3-d]pyrimidin-2-yl)oxy]ethyl}piperidin-4-yl)propan-2-yl]piperazin-1-yl}-1,2-oxazol-5-yl)-3-methylbutanoyl]-4-hydroxy-N-[(1S)-1-[4-(4-methyl-1,3-thiazol-5-yl)phenyl]ethyl] pyrrolidine-2-carboxamide] | 80 to 100% | < 600 nM | –
